These results are taken from patent US20080090881A1, “TREATMENT OF DIABETES WITH THIAZOLIDINEDIONE AND METFORMIN” (SmithKline Beecham plc, priority 1997, published 2008).

A short description of this data set: clinical. Conditions: male, human, plasma, po.

As usually defined, the Tmax is the time at which the peak concentration occurs. By half-life is commonly meant how long it takes for the measured level to halve. Low values mean fast loss, high ones slow loss.

Description: Sixteen male volunteers, aged 22 to 55 years, received oral Compound (I) (2 mg Q 12 h), M (500 mg Q12 h), or the combination, each for 4 days.

As to `CN(CCOc1ccc(CC2SC(=O)NC2=O)cc1)c1ccccn1` (stereo not drawn) [Compound (I), 5-[4-[2-(N-methyl-N-(2-pyridyl)amino)ethoxy]benzyl]thiazolidine-2,4-dione], the Tmax came out at 3 h and the half-life is 3.24 h.
Take `CN(C)C(=N)N=C(N)N` [M, 1,1-Dimethylbiguanidine, reference compound]: the time to peak (Tmax) worked out at 3 h.
